As usually defined, the inhibition is the share of the control response that was lost under treatment. By EC50 is commonly meant the concentration giving half of the maximal effect. A word on the IC50: it is the point on the concentration scale where inhibition reaches its midpoint.

This note sets out measurements from patent US20100185419A1, “ALGORITHM FOR DESIGNING IRREVERSIBLE INHIBITORS” (Avila Therapeutics, Inc., priority 2008, published 2010).

The target of assay [1] is T1, c-KIT (Homo sapiens, UniProt P10721). Briefly: cKIT inhibition assay (electrophoretic mobility shift). Type of assay: biochemical. Also on record: purchased Millipore 14-559. The protocol: The reaction was started by adding the ATP and incubating for 1 hour at room temperature. […] Phosphorylated and unphosphorylated substrate was separated by charge using electrophoretic mobility shift.
T1 sequence (P10721 26-976): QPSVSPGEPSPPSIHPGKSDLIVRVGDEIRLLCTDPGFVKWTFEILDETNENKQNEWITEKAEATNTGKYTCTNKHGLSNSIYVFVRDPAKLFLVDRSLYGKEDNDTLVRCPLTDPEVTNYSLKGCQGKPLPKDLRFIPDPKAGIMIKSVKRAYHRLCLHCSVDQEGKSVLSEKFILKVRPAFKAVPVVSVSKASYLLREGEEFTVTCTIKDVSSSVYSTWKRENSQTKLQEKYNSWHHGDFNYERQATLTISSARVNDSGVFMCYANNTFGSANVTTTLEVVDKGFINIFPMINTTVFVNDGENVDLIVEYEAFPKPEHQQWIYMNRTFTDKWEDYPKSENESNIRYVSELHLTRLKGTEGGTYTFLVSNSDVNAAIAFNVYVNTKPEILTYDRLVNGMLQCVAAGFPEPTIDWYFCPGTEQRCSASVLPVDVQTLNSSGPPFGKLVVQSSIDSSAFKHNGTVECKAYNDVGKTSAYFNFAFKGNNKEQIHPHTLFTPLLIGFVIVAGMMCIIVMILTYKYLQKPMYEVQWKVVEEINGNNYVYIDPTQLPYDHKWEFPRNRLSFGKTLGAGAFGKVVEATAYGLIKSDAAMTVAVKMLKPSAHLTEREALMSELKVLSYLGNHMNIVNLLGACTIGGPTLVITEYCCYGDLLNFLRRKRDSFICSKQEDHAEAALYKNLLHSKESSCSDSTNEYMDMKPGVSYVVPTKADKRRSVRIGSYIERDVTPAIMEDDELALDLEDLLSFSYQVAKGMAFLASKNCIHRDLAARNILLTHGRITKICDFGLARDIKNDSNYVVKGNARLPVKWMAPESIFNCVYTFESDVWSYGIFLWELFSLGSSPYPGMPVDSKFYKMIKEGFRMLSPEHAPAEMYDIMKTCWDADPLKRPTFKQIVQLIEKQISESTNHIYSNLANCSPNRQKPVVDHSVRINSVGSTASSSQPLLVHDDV
Background: A gel shift assay detects complexes by their altered migration in electrophoresis.

For assay [2], the target named is CSF1R (FMS) (Homo sapiens, UniProt P07333). As to the kind of experiment: CSF1R inhibition assay (Z'-LYTE). The assay is classed as biochemical. The following applies: read-out: % inhibition of CSF1R. How it is done: Compounds were assayed as inhibitors of […] in a manner substantially similar to the method described by Invitrogen Corp (Invitrogen Corporation, 1600 Faraday Avenue, Carlsbad, Calif., CA) using the […] biochemical assay procedure or similar biochemical assay. The 2×CSF1R (FMS)/[…] Peptide Mixture was prepared in 50 mM HEPES pH 7.5, 0.01% BRIJ-35, 10 mM MgCl2, 1 mM EGTA. The final […] Kinase Reaction consisted of 0.2-67.3 ng CSF1R (FMS) and 2 μM […] Peptide in 50 mM HEPES pH 7.5, 0.01% BRIJ-35, 10 mM MgCl2, 1 mM EGTA. After the 1 hour Kinase Reaction incubation, 5 μL of a 1:128 dilution of Development Reagent B was added.
Sequence of CSF1R (FMS) (P07333 20-972): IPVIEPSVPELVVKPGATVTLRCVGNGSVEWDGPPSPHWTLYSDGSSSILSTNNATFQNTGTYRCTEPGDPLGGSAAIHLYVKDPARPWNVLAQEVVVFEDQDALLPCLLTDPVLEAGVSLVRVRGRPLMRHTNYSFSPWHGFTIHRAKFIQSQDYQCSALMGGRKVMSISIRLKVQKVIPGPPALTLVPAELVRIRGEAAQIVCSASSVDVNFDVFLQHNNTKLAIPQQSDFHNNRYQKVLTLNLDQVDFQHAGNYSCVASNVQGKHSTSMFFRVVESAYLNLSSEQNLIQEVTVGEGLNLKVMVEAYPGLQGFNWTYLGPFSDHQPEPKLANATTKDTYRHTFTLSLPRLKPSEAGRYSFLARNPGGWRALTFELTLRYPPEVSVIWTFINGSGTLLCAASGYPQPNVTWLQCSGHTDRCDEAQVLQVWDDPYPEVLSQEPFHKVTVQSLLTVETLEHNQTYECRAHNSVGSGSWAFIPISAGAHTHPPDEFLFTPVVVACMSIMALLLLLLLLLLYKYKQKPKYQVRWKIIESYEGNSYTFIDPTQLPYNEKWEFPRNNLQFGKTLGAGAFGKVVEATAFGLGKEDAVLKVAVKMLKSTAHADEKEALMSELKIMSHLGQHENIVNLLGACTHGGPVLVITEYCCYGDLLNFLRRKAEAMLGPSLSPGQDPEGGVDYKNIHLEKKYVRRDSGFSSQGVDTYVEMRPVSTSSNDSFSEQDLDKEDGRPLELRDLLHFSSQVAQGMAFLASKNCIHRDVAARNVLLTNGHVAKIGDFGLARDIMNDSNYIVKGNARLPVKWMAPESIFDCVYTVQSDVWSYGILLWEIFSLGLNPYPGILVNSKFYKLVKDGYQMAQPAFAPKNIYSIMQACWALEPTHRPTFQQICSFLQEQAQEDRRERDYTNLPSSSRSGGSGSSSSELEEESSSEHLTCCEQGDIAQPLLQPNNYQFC

In assay [3] the target is CSF1R (Homo sapiens, UniProt P07333). Briefly: CSF1R mass spectral analysis of tryptic digest. Type of assay: binding. The conditions noted are these: 3 hrs at 10× excess, tryptic digest MALDI. How it is done:
Iodoacetamide was used as the alkylating agent after compound incubation. For tryptic digests, a 2 μl aliquot (0.09 μg/μl) was diluted with 10 μl of 0.1% TFA prior to micro C18 Zip Tipping directly onto the MALDI target using alpha cyano-4-hydroxy cinnamic acid as the matrix (5 mg/ml in 0.1% TFA:Acetonitrile 50:50).
For tryptic digests, the instrument was set in Reflectron mode with a pulsed extraction setting of 1800. Calibration was done using the Laser Biolabs Pep Mix standard (1046.54, 1296.69, 1672.92, 2093.09, 2465.20). For CID/PSD analysis the peptide was selected using cursors to set ion gate timing and fragmentation occurred at a laser power about 20% higher and He was used as the collision gas for CID. Calibration for fragments was done using the P14R fragmentation calibration for the Curved field Reflectron. Database searching of the tryptic digest of CSF identified it correctly. […] PSD analysis of this peptide signal (1160.50) gave enough fragments to allow for a database MS/MS ion search which verified the sequence of this peptide.

Assay [4] deals with T1, c-KIT. Briefly: c-KIT mass spectral analysis of tryptic digest. Type of assay: binding. The conditions noted are these: 3 hours at 10× excess, tryptic digest MALDI-TOF. How it is done: Iodoacetamide was used as the alkylating agent after compound incubation. For tryptic digests a 5 μl aliquot (14 pmols) was diluted with 10 ul of 0.1% TFA prior to micro C18 Zip Tipping directly onto the MALDI target using alpha cyano-4-hydroxy cinnamic acid as the matrix (5 mg/ml in 0.1% TFA:acetonitrile 50:50).
The tryptic digest was analyzed by mass spectrometer (MALDI-TOF).
Iodoacetamide was used as the alkylating agent after compound incubation. […] For tryptic digests a 2 μl aliquot (3.3 pmols) was diluted with 10 μl of 0.1% TFA prior to micro C18 Zip Tipping directly onto the MALDI target using alpha cyano-4-hydroxy cinnamic acid as the matrix (5 mg/ml in 0.1% TFA:Acetonitrile 50:50).
For tryptic digests the instrument was set in Reflectron mode with a pulsed extraction setting of 2200. […] Calibration for fragments was done using the P14R fragmentation calibration for the Curved field Reflectron.

Assay [5] deals with HCV RNA replicon. As to the kind of experiment: Replicon assay (luciferase, ET Huh7 cell line). The conditions noted are these: Hepatitis C virus, Huh-7, 72 h, read-out: EC50 replicon assay. A general note: In antiviral work, replicon cells carry a viral genome segment that copies itself.
Description: The compounds were assayed to evaluate the antiviral activity and cytotoxicity of compounds using replicon-derived luciferase activity. This assay used the cell line ET (luc-ubi-neo/ET), which is a human Huh7 hepatoma cell line that contains an HCV RNA replicon with a stable luciferase (Luc) reporter and three cell culture-adaptive mutations.
The ET cell line was grown in Dulbecco's modified essential media (DMEM), 10% fetal bovine serum (FBS), 1% penicillin-streptomycin (pen-strep), 1% glutamine, 1% non essential amino acid, 400 μg/mL G418 in a 5% CO2 incubator at 37° C. All cell culture reagents were obtained from Invitrogen(Carlsbad). Cells were trypsinized (1% trypsin:EDTA) and plated out at 5×10^3 cells/well in white 96-well assay plates (Costar) dedicated to cell number (cytotoxicity) or antiviral activity assessments. Compounds were added at six 3-fold concentrations each and the assay was run in DMEM, 5% FBS, 1% pen-strep, 1% glutamine, 1% non essential amino acid. Human interferon alpha-2b (PBL Biolabs, New Brunswick, N.J.) was included in each run as a positive control compound. Cells were processed 72 hr post compound addition when the cells are still subconfluent. Antiviral activity was measured by analyzing replicon-derived luciferase activity using the Steady-Glo Luciferase Assay System (Promega, Madison, Wis.) according to manufacturer's instruction. The number of cells in each well was determined by Cell Titer Blue Assay (Promega).
The target of assay [6] is T2, cKIT in GIST882 cells (Homo sapiens, UniProt P10721, K642E).
T2 construct: endogenous in cells; host or cells: GIST882 cells
T2 sequence (P10721 26-976 K642E): as the sequence (P10721 26-976) above, with K617E counted along it
Briefly: GIST882 cellular assay with washout (western blot). The assay is classed as cell-based. The following applies: for cKIT autophosphorylation / downstream signaling of ERK: 1 micromolar. How it is done: GIST882 cells were seeded in a 6 well plate at a density of 8×10^5 cells/well in complete media. The next day cells were treated with 1 uM compound diluted in complete media for 90 minutes. After 90 minutes, the media was removed and cells were washed with compound-free media. Cells were washed every 2 hours and resuspended in fresh compound-free media.
(In general: Immunoblotting shows a protein as a band on a membrane.)

The target in assay [7] is T3, Btk (Homo sapiens, UniProt Q06187).
T3 construct: purchased Invitrogen
T3 sequence (Q06187 whole entry): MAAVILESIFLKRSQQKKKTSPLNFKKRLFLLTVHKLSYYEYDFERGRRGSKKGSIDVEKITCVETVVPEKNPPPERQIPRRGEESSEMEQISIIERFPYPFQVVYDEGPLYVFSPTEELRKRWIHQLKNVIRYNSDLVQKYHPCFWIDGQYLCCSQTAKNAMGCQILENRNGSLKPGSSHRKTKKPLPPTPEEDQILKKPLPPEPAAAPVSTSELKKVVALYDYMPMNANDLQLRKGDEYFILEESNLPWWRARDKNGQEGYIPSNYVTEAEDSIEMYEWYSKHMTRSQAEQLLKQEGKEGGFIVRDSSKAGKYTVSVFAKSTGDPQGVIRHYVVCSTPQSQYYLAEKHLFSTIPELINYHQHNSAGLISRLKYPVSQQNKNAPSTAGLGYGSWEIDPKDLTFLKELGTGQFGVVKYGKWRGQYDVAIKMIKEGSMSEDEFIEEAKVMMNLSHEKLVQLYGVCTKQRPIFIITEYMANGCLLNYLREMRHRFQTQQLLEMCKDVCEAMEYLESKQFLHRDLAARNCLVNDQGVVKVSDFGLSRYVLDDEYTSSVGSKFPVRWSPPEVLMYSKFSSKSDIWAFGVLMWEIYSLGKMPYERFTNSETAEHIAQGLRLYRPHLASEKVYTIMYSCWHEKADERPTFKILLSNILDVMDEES
As to the kind of experiment: Omnia assay for potency against Btk. The following applies: biochemical assay; read-out: IC50 Btk kinase. How it is done:
The protocol below describes continuous-read kinase assays to measure inherent potency of compounds against active forms of Btk enzyme. The mechanics of the assay platform are best described by the vendor (Invitrogen, Carlsbad, Calif.) on the world wide web at invitrogen.com/site/us/en/home/Products-and-Services/Applications/Drug-Discovery/Target-and-Lead-Identification-and-Validation/KinaseBiology/KB-Misc/Biochemical-Assays/Omnia-Kinase-Assays.html. Briefly, 10× stocks of 5 nM Btk from Invitrogen, 1.13×40 μM ATP (AS001A) and 10 μM (ATP KMapp ˜[…]) Tyr-Sox conjugated peptide substrates (KCZ 1001) were prepared in 1× kinase reaction buffer consisting of 20 mM Tris, pH 7.5, 5 mM MgCl2, 1 mM EGTA, 5 mM β-glycerophosphate, 5% glycerol (10× stock, KBOO2A) and 0.2 mM DTT (DS001A).

For assay [8], the target named is HCV NS3/4A 1b protease D168A (Hepatitis C virus genotype 1b, UniProt P26662, D1194A). As to the kind of experiment: HCV Protease FRET Assay for mutated NS3/4A 1b enzyme (IC50). Type of assay: biochemical. The conditions noted are these: 30 min pre-incubation. An excerpt: 279, No. 17, pp 17508-17514.
Sequence of HCV NS3/4A 1b protease D168A (P26662 1027-1208 D1194A): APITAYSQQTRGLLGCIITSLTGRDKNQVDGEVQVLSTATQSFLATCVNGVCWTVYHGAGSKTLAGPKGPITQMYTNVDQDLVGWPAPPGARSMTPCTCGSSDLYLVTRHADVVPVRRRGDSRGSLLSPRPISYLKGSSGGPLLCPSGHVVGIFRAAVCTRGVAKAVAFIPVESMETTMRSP
Sequence of HCV NS3/4A 1b protease D168A (P26662 1658-1711 partner limits assumed): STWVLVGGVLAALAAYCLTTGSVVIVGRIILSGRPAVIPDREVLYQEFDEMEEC
Assay [9] concerns the target HCV NS3/4A 1b protease WT (Hepatitis C virus genotype 1b, UniProt P26662). As to the kind of experiment: HCV Protease FRET Assay for wild type NS3/4A 1b enzyme (IC50). The assay is classed as biochemical. The following applies: 30 min pre-incubation.
In assay [10] the target is HCV NS3/4A 1b protease (Hepatitis C virus genotype 1b, UniProt P26662). Briefly: biochemical.
Sequence of HCV NS3/4A 1b protease (P26662 1027-1208): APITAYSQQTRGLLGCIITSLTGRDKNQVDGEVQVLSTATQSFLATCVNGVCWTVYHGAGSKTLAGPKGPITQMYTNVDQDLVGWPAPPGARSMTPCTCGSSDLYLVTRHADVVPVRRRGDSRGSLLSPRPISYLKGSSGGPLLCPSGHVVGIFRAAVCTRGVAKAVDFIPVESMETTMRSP
Sequence of HCV NS3/4A 1b protease (P26662 1658-1711): as the sequence (P26662 1658-1711 partner limits assumed) above
Description: An HCV Protease FRET Assay for HCV NS3/4A 1b Enzyme (IC50_APP) was used. The following protocol was used to generate “apparent” IC50 (IC50_APP) values. […] Protease reactions were immediately started after enzyme addition with the addition of 45 μL of the FRET substrate and monitored for 60-90 minutes at λex485/λem520 in a Synergy4 plate reader from BioTek (Winooski, Vt.).
[11] abbreviates: 1 uM for 90 minutes, then washed free of compound.

Like-named read-outs stand apart in the source and are kept apart here.

Sequence of HCV NS3/4A 1b protease WT (P26662 1658-1711): as the sequence (P26662 1658-1711 partner limits assumed) above
Sequence of HCV NS3/4A 1b protease WT (P26662 1027-1208): as the sequence (P26662 1027-1208) above
Sequence of CSF1R (P07333 20-972): as the sequence (P07333 20-972) above

Take `C=CC(=O)Nc1ccc(C(=O)Nc2ccc(C)c(Nc3nccc(-c4cccnc4)n3)c2)cc1` [Compound 1, 4-acrylamido-N-(4-methyl-3-(4-(pyridin-3-yl)pyrimidin-2-ylamino)phenyl)benzamide]: in assay [1] (read-out: % Inhibition of c-KIT), the inhibition at 1 µM turned out to be 82%. Further, in [2] (10 μM compound), the inhibition at 10 µM came out at 72%.
Regarding `C=CC(=O)Nc1ccc(C(=O)Nc2ccc(C)c(Nc3nccc(-c4cccnc4)n3)c2)cc1C(F)(F)F` [Compound 2, 4-Acrylamido-N-(4-methyl-3-(4-pyridin-3-yl)pyrimidin-2-ylamino)phenyl-3-(trifluoromethyl)benzamide], the inhibition at 10 µM in assay [2] worked out at 89%. The “covalent modification of CSF1R (modified peptide)” value in assay [3] is reported as “NCIHR”.
As to `Cc1ccc(C(=O)Nc2ccc(NC(=O)CCl)c(C(F)(F)F)c2)cc1Nc1nccc(-c2cccnc2)n1` [Compound 3], the “covalent modification of c-KIT (site or peptide)” value in [4] was “Cys788 (major) and: Cys808 (minor)”.
For the compound `C=CC(=O)NC[C@H](NC(=O)OC(C)(C)C)C(=O)N1C[C@H](Oc2cc(-c3ccccc3)nc3cc(OC)ccc23)C[C@H]1C(=O)N[C@]1(C(=O)NS(=O)(=O)c2ccccc2)C[C@H]1C=C` [Compound 6, N-[(1,1-dimethylethoxy)carbonyl]-3-[(2-propenoyl)amino]-L-alanyl-(4R)-4-[(7-methoxy-2-phenyl-4-quinolinyl)oxy]-L-prolyl-1-amino-2-ethenyl-N-(phenylsulfonyl)-(1R,2S)-cyclopropanecarboxamide], the EC50 in [5] came out at 174 nM.
Take `C=CC(=O)Nc1ccc(NC(=O)Nc2ccc(Oc3ccnc(C(=O)NC)c3)cc2)cc1C(F)(F)F` [Compound 7, 4-(4-(3-(4-Acrylamido-3-(trifluoromethyl)phenyl)ureido)phenoxy)-N-methylpicolinamide]: in [1] (inhibition of cKIT phosphorylation), the IC50 came out at 31 nM. In addition, the “persistence of inhibition after washout” value in assay [6] (setting [11]) is listed as “at least 8 hours”. Besides, in [6], the cKIT autophosphorylation entry is reported as “inhibited” and the “downstream signaling of ERK” value is reported as “inhibited”. In addition, the “covalent modification of c-KIT (site or peptide)” value in assay [4] is recorded as “NCIHR”.
For `CCC(=O)Nc1cccc(Nc2cc(Nc3ccc(Oc4ccccc4)cc3)ncn2)c1` [Compound 9], the half-maximal inhibitory concentration (IC50) in assay [7] stood at 8600 nM.
`C=C[C@@H]1C[C@]1(NC(=O)[C@@H]1C[C@@H](Oc2cc(-c3ccccc3)nc3cc(OC)ccc23)CN1C(=O)CNC(=O)CC)C(=O)NS(=O)(=O)c1ccccc1` [Compound 11, reference compound]: the IC50 in [8] was more than 3000 nM; in assay [9], 165 nM. For the same compound, in [5], the EC50 is more than 3000 nM.
On to `C=CC(=O)NCC(=O)N1C[C@H](Oc2cc(-c3ccccc3)nc3cc(OC)ccc23)C[C@H]1C(=O)N[C@]1(C(=O)NS(=O)(=O)c2ccccc2)C[C@H]1C=C` [Compound 12, (2S,4R)-1-(2-acrylamidoacetyl)-4-(7-methoxy-2-phenylquinolin-4-yloxy)-N-((1R,2S)-1-(phenylsulfonylcarbamoyl)-2-vinylcyclopropyl)pyrrolidine-2-carboxamide], for which the figures for the 50% inhibitory concentration (IC50) in assay [8] and in assay [9] were 17 nM and 0.3 nM, respectively. Also, the EC50 in [5] was 204 nM.
The compound `C=CC1C[C@]1(NC(=O)[C@@H]1C[C@@H](Oc2cc(-c3ccccc3)nc3cc(OC)ccc23)CN1C(=O)C(NC(=O)OC(C)(C)C)C(C)C)C(=O)NS(=O)(=O)c1ccccc1` (stereo partly shown) [Compound V-1, reference compound] came in with an IC50 in [10] of 0.4 nM.
As for `CNC(=O)c1cc(Oc2ccc(NC(=O)Nc3ccc(Cl)c(C(F)(F)F)c3)cc2)ccn1` [Sorafenib, sorafenib, reference compound], in assay [6] (setting [11]), the “inhibitory activity of ckit and downstream signaling after washout” value is listed as “overcome”. In addition, in [6], the cKIT autophosphorylation entry was “inhibited” and the “downstream signaling of ERK” value is recorded as “inhibited”.
